From the supplement of paper PMC10307832

What was measured:
Assay in all cases: relative viability (nuclei count vs DMSO), 5 days (fraction); higher = more cells survive
[1] = compound: Cc1ccc(C(=O)Nc2cccc(C(F)(F)F)c2)cc1Nc1cncc(C(N)=O)c1 [ALW-II-49-7] + CS(=O)(=O)N1CCN(Cc2cc3nc(-c4cccc5[nH]ncc45)nc(N4CCOCC4)c3s2)CC1 [Pictilisib] (partner 1 µM)
In short: (§1)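 Nuclei were stained with Hoechst during a one-step fixation (final 0.05% Triton X-100, 1% formaldehyde, 1 ug/ml Hoechst) carried out 5 days after dosing, then counted on 4× images. The cells, lung cancer lines in 1536-well plates, had been dosed by pin tool the day after seeding with one drug alone or a fixed anchor-drug dose plus five library-drug doses (not always all listed) in √10 steps. Relative viability is the nuclei count in treated wells divided by that in vehicle wells, and each value is the median of duplicate plates.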

[2] = compound: C1CC1C(=O)NC2=NNC3=C2C=CC(=C3)C4=CC(=CC=C4)C(=O)NC5CC5 [XMD13-2] + C[C@]1(O)C[C@@H](c2nc(-c3ccc4ccc(-c5ccccc5)nc4c3)c3c(N)nccn32)C1 [Linsitinib] (partner 1 µM)
In short: as §1

[3] = compound: C1CC1C(=O)NC2=NNC3=C2C=CC(=C3)C4=CC(=CC=C4)C(=O)NC5CC5 [XMD13-2] + Nc1nc2[nH]cc(CCc3ccc(C(=O)N[C@@H](CCC(=O)O)C(=O)O)cc3)c2c(=O)[nH]1 [Pemetrexed] (partner 0.2 µM)
In short: as §1

[4] = compound: C1CC1C(=O)NC2=NNC3=C2C=CC(=C3)C4=CC(=CC=C4)C(=O)NC5CC5 [XMD13-2] + CC(C)C[C@H](NC(=O)[C@H](Cc1ccccc1)NC(=O)c1cnccn1)B(O)O [Bortezomib] (partner 0.002 µM)
In short: as §1

Row | Cell Line | relative viability ([1]; first compound 0.08 µM) | relative viability ([1]; first compound 0.253 µM) | relative viability ([1]; first compound 0.8 µM) | relative viability ([1]; first compound 2.53 µM) | relative viability ([1]; first compound 8 µM) | relative viability ([2]; first compound 0.05 µM) | relative viability ([2]; first compound 0.1581 µM) | relative viability ([2]; first compound 0.5 µM) | relative viability ([2]; first compound 1.581 µM) | relative viability ([2]; first compound 5 µM) | relative viability ([3]; first compound 0.05 µM) | relative viability ([3]; first compound 0.1581 µM) | relative viability ([3]; first compound 0.5 µM) | relative viability ([3]; first compound 1.581 µM) | relative viability ([3]; first compound 5 µM) | relative viability ([4]; first compound 0.05 µM) | relative viability ([4]; first compound 0.1581 µM) | relative viability ([4]; first compound 0.5 µM) | relative viability ([4]; first compound 1.581 µM) | relative viability ([4]; first compound 5 µM)
1 | 201T | 0.666 | 0.684 | 0.771 | 0.714 | 0.628 | 1.06 | 1.08 | 1.01 | 0.957 | 0.908 | 0.372 | 0.309 | 0.384 | 0.329 | 0.364 | 1.12 | 1.12 | 1.16 | 1.15 | 1.18
2 | A549 | 0.535 | 0.568 | 0.496 | 0.505 | 0.416 | 0.856 | 0.513 | 0.579 | 0.677 | 0.674 | – | – | – | – | – | – | – | – | – | –
3 | A-427 | 0.687 | 0.634 | 0.835 | 0.775 | 0.734 | 1.11 | 1.14 | 1.18 | 1.09 | 1 | 1.04 | 0.922 | 0.995 | – | 0.82 | 0.993 | 1.06 | 0.993 | 0.858 | 0.857
4 | ABC-1 | 0.879 | 0.761 | 0.811 | 0.79 | 0.689 | 0.918 | 0.874 | 1.04 | 0.704 | 0.86 | – | – | – | – | – | 0.331 | 0.319 | 0.261 | 0.289 | 0.296
5 | BEN | 0.56 | 0.592 | 0.608 | – | 0.567 | 1.07 | 0.884 | 0.963 | 0.866 | 0.898 | 0.876 | 0.858 | 0.734 | 0.641 | 0.803 | 1.2 | 0.83 | 0.847 | 0.712 | 0.801
